“Also recorded” adds a separate entry of the source.
Columns and labels:
PlexA1 TMD = experiment: bacterial two-hybrid (BACTH) assay of TMD interactions with PlexA1 TMD; assay type: binding; conditions: Zip sequence positive control, Empty negative control
From the text: To further explore the TMD interactions of PlexA1 we used a bacterial two-hybrid system for a more systematic analysis of TMD interactions. TMD sequences of PlexA1 and various potential interacting partners including NRP1 and all other members of the Plexin-A family were co-expressed in the bacteria to define the hierarchy of the interactions.
(§1) “Zip sequence” is the positive control of dimerization and “Empty” is the negative control of this bacterial system. (C, D) SPR assay (Biacore) to quantify MTP-PlexA1 interactions with PLexA1, NRP1 and VEGFR2 TMDs. (E) Proximity ligation assay showing that MTP-PlexA1 (10^−7 M) decreases the number of PLexA1-NRP1 interactions (green dots) in U373MG cells (scale bar = 20 μm).

NRP1 = conditions: cited from earlier work
From the text: Glioblastoma (GBM) is a devastating disease with poor prognosis. Highly infiltrative and vascularized, these tumors are composed of multi-clonal cell types with various migratory and proliferative properties, and are genetically very heterogeneous. This obvious cellular heterogeneity largely accounts for the observed resistance to all available therapeutic strategies including, surgery, radiotherapy and chemotherapy. Significant recent progress in targeted therapy comprises blocking various receptor tyrosine kinases (RTK) or inhibiting angiogenesis. However, the clinica ...

NRP1/PlexA1 complexes = experiment: in situ proximity ligation assay (Duo-link), NRP1/PlexA1 complexes in U373MG cells; assay type: cell-based, human; conditions: specificity control, MTP-Neu at 10–6 M
Method: as §1
Additional specificity controls were performed using a mutated version of MTP-PlexA1 (in which 3 glycines of the GxxxGxxxG motif were replaced by 3 valines or MTP-Neu, an anti-breast cancer peptide known to not interact with PlexA1) as described in Supplementary Figure S2. […] Similar results were obtained when cells were exposed to VEGF (39.4% NRP1 and 35.4% PlexA4, Figure 4B).
Supplementary Figure S2: Specificity controls were performed using a mutated version of MTP-PlexA1 […]
LVIVAVLIAYKRK). Such mutations have been previously shown to be sufficient to lose activity of NRP1 antagonist membrane domain targeting peptide (Roth et al., 2008 Mol Biol Cell). We also used MTP-Neu, a transmembrane domain targeting peptide known to […]
M, a concentration previously shown to produce maximal antagonist activity of the peptide. Additionally, we also repeated the in vitro angiogenic assay on matrigel using HUVEC cells. […]
to MTP-PlexA1. These experiments confirmed the specificity of MTP-PlexA1.
(§2) (1 picture or pasted object on this page, not shown here)

HUVEC cells = experiment: pseudo-tube formation assay, HUVEC on matrigel; assay type: cell-based, human; conditions: specificity control
From the text: We observed PlexA1 positive blood vessels in the tissue array of GBM samples (Figure 5A). […] To address this possibility we first used a transgenic zebra-fish model tg(kdrl:eGFP) highlighting the endothelial cells. This allowed us to assess the angiogenic activities in vivo by analyzing formation of intersegmental vessels (ISVs) after morpholino-based knockdown of the target.
Figure 5 MTP-PlexA1 inhibits developmental and tumor-specific PlexA1 pro-angiogenic role (A) Microphotographs illustrating the expression of PlexA1 in vascular-like structures in human glioma tissues. (Scale bar: 40 μm). (B) Morpholino-based PlexA1 knockdown in Zebrafish tg(kdrl:eGFP) line. Representative images of control, Plexin-A1 mismatch and Pexin-A1 knockdown embryos (plxna1MO) are shown 28 hours post fertilization (28hpf). […] (E) Live-monitoring of VEGF-induced HUVEC cell migration assay using the XCelligence system (transwell assay). (F) Microphotographs illustrating the expression of PlexA1 in blood vessels of the chick chorioallontoic membrane (upper left picture). Microphotographs (middle and lower left pictures) and camera lucida drawing (middle and lower right pictures) showing representative fields of observation after 24 h incubation with VEGF (100 ng/ml, +vehicle) or VEGF + MTP-PlexA1 (10^−7 M). The number of VEGF-induced new blood vessels is shown in the graph. […]

U373MG cells = experiment: 3D migration assay, U373MG spheroids in plasma clot; assay type: cell-based, human; conditions: U373MG, 100 ng/ml, 24 h plasma clot
Method: Supplementary Figure S6: The anti-tumor effect of MTP-PlxA1 was verified in U373MG human GBM line. We found […]
Because PlexA1 is involved in cell migration we also performed a 3D migration assay. U373MG cells were grown as cell aggregates (micro tumor-like spheroids) for 24 h in plasma clot with or without VEGF. […]
migration that formed cell chains invading the 3D substrate as previously described (12). Strikingly, VEGF-induced cell migration was abolished when MTP-PlexA1 at 10–7 M was added to the cultures. […]
of PlexA1, this part of the study exemplified the therapeutic potential of MTP-PlexA1 because this peptide was able to block two major mechanisms of tumor progression.
(Stable Disease) and 62.5% PR (Partial Response).
as §2

p-Akt/Akt = experiment: western blot of Akt phosphorylation in U373MG cells; assay type: cell-based, human; conditions: p-Akt/Akt ratio, western blot, Sema3A 100 ng/ml
Method: (C) Rac-1 activation assay in resting condition and after Sema3A-induced Rac-1 activation in U373 MG cells. (D) Western blot analysis of phosphorylated Akt, total Akt and tubulin in U373MG cells treated with the vehicle (LDS 72 μM), Sema3A (100 ng/ml) or Sema3A + MTP-PlexA1 (10^−7 M). The lower panel is showing the quantification of the p-Akt/Akt ratio in the different conditions. (E) MTP-PlexA1 decreases VEGFR-2 phosphorylation induced by VEGF (100 ng/ml) in HUVEC cells. […]
in 20 mM sodium acetate (pH 4.5) at a flow rate of 5 μl/ min 10–7 M of MTP-PlexA1 or Vehicle (LDS, 72 µM) during until desired surface densities, measured in response 1 h. Stimulation was done with 100ng/ml Semaphorin 3A units, were reached. […] First antibodies (Rabbit anti-phospho-the elution buffer containing detergent removed non- akt, Rabbit anti-akt, Cell Signaling #4060 and #9272 biotinylated peptides rendering the chip ready for analysis respectively) and mouse anti-tubulin α (Cell Signaling with monomeric biot-MTP-PlexA1. Blank surfaces were #2144) were incubated overnight at 4°C (+ anti-NRP1, used for background corrections. Injections of 30 µl anti-PlexA4 Abcam). […] Images of the immuno-blots cells per well in a 6-well plate and serum starved overnight. were acquired and analyzed thanks to the GENE GNOME Before protein extraction, the cells were treated either with apparatus (Syngene Bio Imaging, UK).

Molecule | interaction with PlexA1 TMD (PlexA1 TMD) | further results
AAQVGLGVGTSLLALGVIIIVLMYRRK [Plexin-B1, TMD of Plexin B1 in BACTH assay] | no significant interaction | 
IEITLIIFGVMAGVIGTILLISYGIRRK [GPA, TMD of GpA in BACTH assay] | no significant interaction | 
IIILVGTAVIAMFFWLLLVIILRTVKRK [VEGFR-2, TMD of VEGFR-2 in BACTH assay] | no significant interaction | 
IIPIVAGVVAGIVLIGLALLLIWKLLKR [Integrin Beta-1, TMD of Integrin β-1 in BACTH assay] | no significant interaction | 
ILITIIAMSALGVLLGAVCGVVLYRKR [MTP-NRP1, synthetic peptide mimicking the TMD of NRP1] |  | NRP1 dimerization antagonism (NRP1): potent inhibitor by antagonizing dimerization; brain tumor growth (NRP1): reducing brain tumor growth; tumor cell migration and angiogenesis (NRP1; in vitro and in vivo): impaired tumor cell migration and angiogenesis
ILITIIAMSALGVLLGAVCGVVLYRKR [NRP1, TMD of Neuropilin-1 in BACTH assay] | significant interaction | 
ISIISAVVGILLVVVLGVVFGILIKRR [HER2, TMD of HER2 in BACTH assay] | no significant interaction | 
NFTGLIAGVVSISTALLLLLGFFLWLKKR [cMET, TMD of c-Met in BACTH assay] | no significant interaction | 
NLELITLCTCVAATLFWLLLTLFIRKK [VEGFR-1, TMD of VEGFR-1 in BACTH assay] | no significant interaction | 
SLPAIVSIAVAGGLLIIFIVAVLIAYKRK [Plexin-A4, TMD of Plexin A4 in BACTH assay] | positive interactions | 
SMEIVILVGTGVIAVFFWVLLLLIFCNRRK [VEGFR-3, TMD of VEGFR-3 in BACTH assay] | no significant interaction | 
TLPAIVGIGGGGGLLLLVIVAVLIAYKRK [PlexA1, TMD of Plexin A1 in BACTH assay] | homo-dimerization capacity | 
TLPAIVSIAAGGSLLLIIVIIVLIAYKRK [Plexin-A2, TMD of Plexin A2 in BACTH assay] | weaker interactions | 
TLPAIVVIGGVGVLLLLVIVAVLIAYKRK [MTP-PlexA1mut] |  | disruption of NRP1/PlexA1 dimers (NRP1/PlexA1 complexes): not by mutated MTP-PlexA1mut peptide; effect on number of tube-like structures (HUVEC on matrigel) (HUVEC cells): not able to decrease tube like structure; also recorded: not able to reduce the number of tube-like structures
TLPAMMGLAAGGGLLLLAITAVLVAYKRK [Plexin-A3, TMD of Plexin A3 in BACTH assay] | weaker interactions | 
VEGF [reference compound] |  | tumor cell migration induced by VEGF (U373MG cells): induced tumor cell
Sema3A: PlexA1 ligand (protein, UniProt Q14563 21-771, looked up) Semaphorin-3A: NYQNGKNNVPRLKLSYKEMLESNNVITFNGLANSSSYHTFLLDEERSRLYVGAKDHIFSFDLVNIKDFQKIVWPVSYTRRDECKWAGKDILKECANFIKVLKAYNQTHLYACGTGAFHPICTYIEIGHHPEDNIFKLENSHFENGRGKSPYDPKLLTASLLIDGELYSGTAADFMGRDFAIFRTLGHHHPIRTEQHDSRWLNDPKFISAHLISESDNPEDDKVYFFFRENAIDGEHSGKATHARIGQICKNDFGGHRSLVNKWTTFLKARLICSVPGPNGIDTHFDELQDVFLMNFKDPKNPVVYGVFTTSSNIFKGSAVCMYSMSDVRRVFLGPYAHRDGPNYQWVPYQGRVPYPRPGTCPSKTFGGFDSTKDLPDDVITFARSHPAMYNPVFPMNNRPIVIKTDVNYQFTQIVVDRVDAEDGQYDVMFIGTDVGTVLKVVSIPKETWYDLEEVLLEEMTVFREPTAISAMELSTKQQQLYIGSTAGVAQLPLHRCDIYGKACAECCLARDPYCAWDGSACSRYFPTAKRRTRRQDIRNGDPLTHCSDLHHDNHHGHSPEERIIYGVENSSTFLECSPKSQRALVYWQFQRRNEERKEEIRVDDHIIRTDQGLLLRSLQQKDSGNYLCHAVEHGFIQTLLKVTLEVIDTEHLEELLHKDDDGDGSKTKEMSNSMTPSQKVWYRDFMQLINHPNLNTMDEFCEQVWKRDRKQRRQRPGHTPGNSNKWKHLQENKKGRNRRTHEFERAPRSV |  | change of Akt phosphorylation (p-Akt/Akt): −33%

From publication PMC5295395, “Inhibition of PlexA1-mediated brain tumor growth and tumor-associated angiogenesis using a transmembrane domain targeting peptide” (Oncotarget, 2016)
